Data published in ChEMBL document CHEMBL1201862, “PubChem BioAssay data set” (2004).
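Dose response: 5 concentrations. Exposure: 48 h. Format: 96-well plates. Endpoint: linear interpolation; highest concentration if not reached. Abbreviation: GI50, concentration required for 50% inhibition of growth.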 Activity calls are given as the source filed them. Cut-off read from the data, not from the text of the source: active = GI50 up to about 1.1 µM and inactive = higher.

Experiments:
Assay in all cases: NCI anticancer screen, dose series, 48 h
[1] = system: XF498
[2] = system: HOP-62
[3] = system: IGROV-1
[4] = system: HCT-116
[5] = system: SF-295
[6] = system: SK-MEL-28
[7] = system: 786-0
[8] = system: M14
[9] = system: CAKI-1
[10] = system: HCC 2998
[11] = system: A498
[12] = system: HT-29
[13] = system: SNB-19
[14] = system: OVCAR-3
[15] = system: TK-10
[16] = system: K562
[17] = system: NCI-H23
[18] = system: HL-60
[19] = system: ACHN
[20] = system: MDA-N

Row | Structure (SMILES) | GI50 [1] | GI50 [2] | GI50 [3] | GI50 [4] | GI50 [5] | GI50 [6] | GI50 [7] | GI50 [8] | GI50 [9] | GI50 [10] | GI50 [11] | GI50 [12] | GI50 [13] | GI50 [14] | GI50 [15] | GI50 [16] | GI50 [17] | GI50 [18] | GI50 [19] | GI50 [20]
1 | CC(/C=C/C(=O)c1sc(-n2nc(-c3ccccc3)cc2-c2ccccc2)nc1C)=C\c1ccccc1 | > 10 µM (inactive) | > 10 µM (inactive) | 98.4 µM (inactive) | 62.5 µM (inactive) | > 10 µM (inactive) | > 10 µM (inactive) | 96.4 µM (inactive) | > 10 µM (inactive) | 20.7 µM (inactive) | 23.7 µM (inactive) | > 10 µM (inactive) | > 10 µM (inactive) | 64.3 µM (inactive) | 26.7 µM (inactive) | > 10 µM (inactive) | 19.9 µM (inactive) | 8.3 µM (inactive) | 36.3 µM (inactive) | 25.6 µM (inactive) | –
2 | COc1cc([C@@H]2c3cc4c(cc3[C@@H](OC3OC5COC(C)OC5C(O)C3O)[C@H]3COC(=O)[C@H]23)OCO4)cc(OC)c1O (stereo partly drawn) | 8.41 µM (inactive) | 1.97 µM (inactive) | 31.4 µM (inactive) | 13.6 µM (inactive) | 5.92 µM (inactive) | 22.1 µM (inactive) | – | – | 4.2 µM (inactive) | 9.02 µM (inactive) | 7.14 µM (inactive) | 28.8 µM (inactive) | – | 39.4 µM (inactive) | – | – | 6.01 µM (inactive) | 0.807 µM (active) | – | 0.968 µM (active)
3 | COC(=O)C12OCC34C(CC5C(C)=C(O)C(=O)CC5(C)C3C(O)C1O)OC(=O)C(OC(=O)C=C(C)C)C24 (stereo not drawn) | 335 µM (inactive) | > 500 µM (inactive) | 330 µM (inactive) | > 489 µM (inactive) | > 500 µM (inactive) | 423 µM (inactive) | 0.275 µM (active) | < 0.215 µM (active) | > 500 µM (inactive) | 453 µM (inactive) | > 500 µM (inactive) | > 500 µM (inactive) | 368 µM (inactive) | – | < 0.215 µM (active) | > 486 µM (inactive) | > 469 µM (inactive) | 498 µM (inactive) | 0.247 µM (active) | < 0.215 µM (active)
4 | CCCCCCCCCCCCCCCC(=O)OCC(C[As](=O)(O)O)OC(=O)CCCCCCCCCCCCCCC (stereo not drawn) | 27 µM (inactive) | > 70.3 µM (inactive) | > 100 µM (inactive) | > 100 µM (inactive) | > 82.6 µM (inactive) | > 100 µM (inactive) | > 84.5 µM (inactive) | > 100 µM (inactive) | 97.3 µM (inactive) | > 100 µM (inactive) | > 100 µM (inactive) | > 100 µM (inactive) | > 56.8 µM (inactive) | > 100 µM (inactive) | > 66.5 µM (inactive) | > 100 µM (inactive) | > 100 µM (inactive) | > 100 µM (inactive) | > 71.6 µM (inactive) | > 100 µM (inactive)
5 | C=CCONC(=O)c1ccc(Cl)cc1 | > 100 µM (inactive) | > 100 µM (inactive) | > 100 µM (inactive) | > 100 µM (inactive) | > 100 µM (inactive) | > 100 µM (inactive) | > 100 µM (inactive) | > 100 µM (inactive) | > 100 µM (inactive) | > 100 µM (inactive) | > 100 µM (inactive) | > 100 µM (inactive) | > 100 µM (inactive) | – | > 100 µM (inactive) | > 100 µM (inactive) | > 100 µM (inactive) | > 100 µM (inactive) | > 100 µM (inactive) | –
6 | CCN(CC)c1ccc2c(c1)Nc1cc(=C(C#N)C#N)c3ccccc3c1=N2 | > 100 µM (inactive) | > 100 µM (inactive) | > 100 µM (inactive) | 82.6 µM (inactive) | > 100 µM (inactive) | > 100 µM (inactive) | > 100 µM (inactive) | > 100 µM (inactive) | > 100 µM (inactive) | > 100 µM (inactive) | > 100 µM (inactive) | > 100 µM (inactive) | > 100 µM (inactive) | > 100 µM (inactive) | > 100 µM (inactive) | > 100 µM (inactive) | > 100 µM (inactive) | > 100 µM (inactive) | > 100 µM (inactive) | –
7 | CN(C)CCNC(=O)c1cccc2[nH]c(-c3ccccn3)nc12 | 36.6 µM (inactive) | 35.3 µM (inactive) | 35.1 µM (inactive) | 19.4 µM (inactive) | 31 µM (inactive) | 36.6 µM (inactive) | – | – | 21.5 µM (inactive) | 49 µM (inactive) | 36.6 µM (inactive) | 19.6 µM (inactive) | 42.2 µM (inactive) | 30.7 µM (inactive) | – | > 55.6 µM (inactive) | 43.7 µM (inactive) | 33.7 µM (inactive) | – | –
8 | CN(C)C(=S)/N=c1\sn(C)/c(=N\C(=S)N(C)C)n1C | > 100 µM (inactive) | > 100 µM (inactive) | > 100 µM (inactive) | > 100 µM (inactive) | > 100 µM (inactive) | > 100 µM (inactive) | > 100 µM (inactive) | > 100 µM (inactive) | > 100 µM (inactive) | > 100 µM (inactive) | 65.6 µM (inactive) | 25.9 µM (inactive) | > 100 µM (inactive) | > 100 µM (inactive) | > 100 µM (inactive) | 34.1 µM (inactive) | 30.8 µM (inactive) | 25.1 µM (inactive) | > 100 µM (inactive) | –
9 | Cc1c(Cl)ccc2c1NC(=O)C2(O)CC(=O)c1ccc(Cl)cc1Cl (stereo not drawn) | 16.7 µM (inactive) | 19.2 µM (inactive) | > 50 µM (inactive) | > 50 µM (inactive) | > 50 µM (inactive) | > 50 µM (inactive) | 27.2 µM (inactive) | > 50 µM (inactive) | > 28.7 µM (inactive) | > 50 µM (inactive) | 16.2 µM (inactive) | > 50 µM (inactive) | > 50 µM (inactive) | > 46.7 µM (inactive) | 30.5 µM (inactive) | 19.1 µM (inactive) | > 47.1 µM (inactive) | – | 36.7 µM (inactive) | > 50 µM (inactive)
10 | c1cc(-c2cn3c(n2)SCC3)ccn1 | > 100 µM (inactive) | > 100 µM (inactive) | > 100 µM (inactive) | > 42.4 µM (inactive) | > 100 µM (inactive) | – | 20.5 µM (inactive) | > 70.8 µM (inactive) | > 100 µM (inactive) | > 100 µM (inactive) | > 100 µM (inactive) | > 100 µM (inactive) | > 100 µM (inactive) | > 100 µM (inactive) | > 100 µM (inactive) | > 31.6 µM (inactive) | > 100 µM (inactive) | > 38.1 µM (inactive) | > 100 µM (inactive) | –
11 | COc1ccc(/C=N/NS(=O)(=O)c2ccccc2)cc1 | > 100 µM (inactive) | > 100 µM (inactive) | > 100 µM (inactive) | > 100 µM (inactive) | 93.5 µM (inactive) | > 100 µM (inactive) | > 100 µM (inactive) | > 100 µM (inactive) | > 100 µM (inactive) | > 100 µM (inactive) | > 100 µM (inactive) | > 100 µM (inactive) | – | > 100 µM (inactive) | > 100 µM (inactive) | > 100 µM (inactive) | > 100 µM (inactive) | > 100 µM (inactive) | > 100 µM (inactive) | –
